Earlier results in PMC4876630 (Theranostics, 2016).

Settings: ref [4]-[8]

CC[C@@]1(O)C(=O)OCc2c1cc1n(c2=O)Cc2cc3ccccc3nc2-1 [CPT, camptothecin]
Aqueous solubility: 2 to 3 µg/mL
